Test results from ChEMBL document CHEMBL1128550, “Nonclassical 2,4-diamino-6-(aminomethyl)-5,6,7,8-tetrahydroquinazoline antifolates: synthesis and biological activities” (J Med Chem, 1995).
pIC50: −log10 of the molar value.

Key:
Dihydrofolate reductase [1] = molecular target: T1, Dihydrofolate reductase (Pneumocystis carinii, UniProt P16184); assay: Inhibitory activity against purified dihydrofolate reductase from Pneumocystis carinii.
T1 sequence (P16184 whole entry): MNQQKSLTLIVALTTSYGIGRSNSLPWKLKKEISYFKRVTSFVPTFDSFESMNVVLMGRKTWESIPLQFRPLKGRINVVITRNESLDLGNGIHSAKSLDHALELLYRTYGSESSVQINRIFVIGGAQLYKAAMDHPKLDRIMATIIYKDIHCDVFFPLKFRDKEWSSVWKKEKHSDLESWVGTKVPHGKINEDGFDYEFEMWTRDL

[2] = molecular target: T2, Bifunctional dihydrofolate reductase-thymidylate synthase (Toxoplasma gondii, UniProt Q07422); assay: Inhibitory activity against purified Dihydrofolate reductase from Toxoplasma gondii.
T2 sequence (Q07422 whole entry): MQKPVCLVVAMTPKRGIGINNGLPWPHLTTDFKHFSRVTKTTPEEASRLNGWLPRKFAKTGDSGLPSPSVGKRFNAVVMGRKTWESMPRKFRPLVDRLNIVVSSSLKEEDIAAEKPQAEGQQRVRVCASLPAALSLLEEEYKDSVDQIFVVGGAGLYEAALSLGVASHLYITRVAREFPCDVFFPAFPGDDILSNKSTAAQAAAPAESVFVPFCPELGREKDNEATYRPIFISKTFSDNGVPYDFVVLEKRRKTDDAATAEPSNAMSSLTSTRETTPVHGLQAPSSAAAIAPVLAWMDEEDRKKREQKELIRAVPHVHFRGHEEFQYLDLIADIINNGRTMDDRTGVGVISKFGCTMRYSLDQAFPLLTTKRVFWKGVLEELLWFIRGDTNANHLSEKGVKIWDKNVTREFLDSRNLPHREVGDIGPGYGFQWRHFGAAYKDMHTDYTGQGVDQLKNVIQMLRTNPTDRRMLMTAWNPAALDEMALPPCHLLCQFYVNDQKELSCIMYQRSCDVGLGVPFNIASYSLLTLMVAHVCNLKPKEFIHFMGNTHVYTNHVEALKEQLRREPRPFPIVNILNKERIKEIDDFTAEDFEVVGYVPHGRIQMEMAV

Dihydrofolate reductase [3] = molecular target: T3, Dihydrofolate reductase (Rattus norvegicus, UniProt Q920D2); assay: Inhibitory activity against purified dihydrofolate reductase from rat
T3 sequence (Q920D2 whole entry): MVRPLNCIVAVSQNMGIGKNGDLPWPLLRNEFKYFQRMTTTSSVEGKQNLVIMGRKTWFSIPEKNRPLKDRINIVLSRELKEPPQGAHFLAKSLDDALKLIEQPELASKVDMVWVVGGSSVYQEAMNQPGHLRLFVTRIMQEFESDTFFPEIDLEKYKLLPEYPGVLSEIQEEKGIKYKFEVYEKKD

[4] = molecular target: T2, Bifunctional dihydrofolate reductase-thymidylate synthase; assay: Inhibitory activity against purified DHFR (Dihydrofolate reductase) from Toxoplasma gondii.
Dihydrofolate reductase [5] = molecular target: T1, Dihydrofolate reductase
Description: Inhibitory activity against purified DHFR (Dihydrofolate reductase) from Pneumocystis carinii.

Dihydrofolate reductase [6] = molecular target: T3, Dihydrofolate reductase
Description: Inhibitory activity against purified DHFR (Dihydrofolate reductase) from rat

[7] = molecular target: T2, Bifunctional dihydrofolate reductase-thymidylate synthase; assay: Inhibitory activity against purified DHFR (Dihydrofolate reductase) from Toxoplasma gondii
NCI-H460 = assay: In vitro activity of compound against non-small cell lung cancer NCI-H460; assay type: functional; conditions: Homo sapiens
K562 = assay: In vitro activity of compound against leukemia K-562 cell line; assay type: functional, Homo sapiens

| pIC50 (Dihydrofolate reductase [1]) | pIC50 (Dihydrofolate reductase [3]) | pIC50 (Dihydrofolate reductase [5]) | pIC50 (Dihydrofolate reductase [6]) | Structure (SMILES) | pIC50 [2] | pIC50 [4] | other results |
| --- | --- | --- | --- | --- | --- | --- | --- |
| 6.92 | 7.13 |  |  | C#CCN(CC1CCc2nc(N)nc(N)c2C1)c1cc(OC)c(OC)c(OC)c1 (stereo not given) | 7.92 |  |  |
|  |  | 5.80 | 5.83 | CCOc1ccc(OCC)c(NCC2CCc3nc(N)nc(N)c3C2)c1 (stereo not given) |  | 6.85 |  |
| 5.17 | 6.82 |  |  | Nc1nc(N)c2c(n1)CCC(CNc1ccc(Cl)c(Cl)c1)C2 (stereo not given) | 6.96 |  |  |
|  |  | 6.29 | 6.86 | Nc1nc(N)c2c(n1)CCC(CNc1cccc3ccccc13)C2 (stereo not given) |  |  | pIC50 [7]: 7.44; GI50 (NCI-H460): 50 nM |
|  |  | 6.39 | 6.62 | Nc1nc(N)c2c(n1)CCC(CNc1cc(Cl)ccc1Cl)C2 (stereo not given) |  | 7.01 |  |
| 6.94 | 7.15 |  |  | CCN(CC1CCc2nc(N)nc(N)c2C1)c1cc(OC)ccc1OC (stereo not given) | 7.77 |  |  |
| 6.52 | 6.59 |  |  | COc1ccc(OC)c(N(C)CC2CCc3nc(N)nc(N)c3C2)c1 (stereo not given) | 7.82 |  |  |
|  |  | 6.03 | 6.89 | Nc1nc(N)c2c(n1)CCC(CNc1ccc(Cl)cc1)C2 (stereo not given) |  | 7.11 |  |
|  |  | 5.51 | 5.79 | COc1cc(CN(C)CC2CCc3nc(N)nc(N)c3C2)cc(OC)c1OC (stereo not given) |  | 6.48 |  |
| 6.77 | 7.17 |  |  | CN(CC1CCc2nc(N)nc(N)c2C1)c1ccc(Cl)cc1 (stereo not given) | 7.66 |  |  |
| 7.02 | 7.42 |  |  | COc1cc(N(C)CC2CCc3nc(N)nc(N)c3C2)cc(OC)c1OC (stereo not given) | 8.15 |  |  |
| 6.48 | 6.64 |  |  | Nc1nc(N)c2c(n1)CCC(CNc1cccc(Br)c1)C2 (stereo not given) | 7.52 |  |  |
| 6.50 | 6.94 |  |  | CCOc1ccc(OCC)c(N(C)CC2CCc3nc(N)nc(N)c3C2)c1 (stereo not given) | 7.77 |  |  |
|  |  | 6.30 | 6.96 | Nc1nc(N)c2c(n1)CCC(CNc1c(Cl)cccc1Cl)C2 (stereo not given) |  | 8.00 |  |
| 4.73 | 4.90 |  |  | COc1cc(CNCC2CCc3nc(N)nc(N)c3C2)cc(OC)c1OC (stereo not given) |  |  |  |
| 5.78 | 6.25 |  |  | COc1ccc(OC)c(NCC2CCc3nc(N)nc(N)c3C2)c1 (stereo not given) | 6.74 |  |  |
|  |  |  | 6.54 | COc1cc(NCC2CCc3nc(N)nc(N)c3C2)cc(OC)c1OC (stereo not given) |  | 7.27 |  |

| Structure (SMILES) | pIC50 (Dihydrofolate reductase [1]) | pIC50 (Dihydrofolate reductase [3]) | pIC50 (Dihydrofolate reductase [5]) | pIC50 (Dihydrofolate reductase [6]) | pIC50 [2] | pIC50 [4] | other results |
| --- | --- | --- | --- | --- | --- | --- | --- |
| Nc1nc(N)c2c(n1)CCC(CN1CCc3ccccc31)C2 (stereo not given) |  |  | 6.68 | 6.80 |  | 7.57 |  |
| CN(CC1CCc2nc(N)nc(N)c2C1)c1cccc2ccccc12 (stereo not given) | 7.00 | 7.33 |  |  | 7.64 |  | GI50 (K562): 40 nM |
| CN(CC1CCc2nc(N)nc(N)c2C1)c1ccc(Cl)c(Cl)c1 (stereo not given) | 6.61 | 7.47 |  |  | 7.68 |  |  |
